Literature values in patent publication US20090318549A1, “COMBINATION TREATMENT OF GLAUCOMA” (QLT Plug Delivery, Inc., priority 2008, published 2009).

What was measured:
[1] = man, after topical administration

solubility in acetone, ethanol, ethyl acetate, isopropanol, methanol and octanol (acetone, ethanol, ethyl acetate, isopropanol, methanol, octanol): freely soluble | solubility in acetonitrile (acetonitrile): very soluble | solubility in water (water): practically insoluble | time at which the peak concentration in the aqueous humor is reached [1]: about two
Structure (SMILES): CC(C)OC(=O)CCC/C=C\C[C@@H]1[C@@H](CC[C@@H](O)CCc2ccccc2)[C@H](O)C[C@@H]1O [Latanoprost, isopropyl-(Z)-7[(1R,2R,3R,5S)3,5-dihydroxy-2-[(3R)-3-hydroxy-5-phenylpentyl]cyclopentyl]-5-heptenoate]
